In ChEMBL document CHEMBL1201862, “PubChem BioAssay data set” (2004):
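Values below derive from 48-hour exposures of cells grown in 96-well plates, with endpoints linearly interpolated between the two concentrations bracketing the appropriate inhibition level. The concentration for 50% growth inhibition is given as GI50.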 Activity calls are given as the source filed them. Rule as the data show it: active = GI50 up to about 1.1 µM and inactive = higher.

Legend:
Assay in all cases: NCI anticancer screen, dose series, 48 h
[1] = test system: EKVX
[2] = test system: IGROV-1
[3] = test system: NCI-H460
[4] = test system: HCT-15
[5] = test system: A549
[6] = test system: ACHN
[7] = test system: K562
[8] = test system: HOP-62
[9] = test system: SK-MEL-5
[10] = test system: Malme-3M
[11] = test system: A498
[12] = test system: RXF 393
[13] = test system: OVCAR-4
[14] = test system: KM12
[15] = test system: NCI-H522
[16] = test system: HCC 2998
[17] = test system: MDA-N
[18] = test system: UO-31
[19] = test system: HL-60
[20] = test system: RPMI-8226
[21] = test system: SNB-19
[22] = test system: MCF7
[23] = test system: PC-3
[24] = test system: NCI-H23
[25] = test system: SK-OV-3
[26] = test system: BT-549
[27] = test system: UACC-62
[28] = test system: SR
[29] = test system: MDA-MB-231
[30] = test system: OVCAR-5
[31] = test system: UACC-257
[32] = test system: OVCAR-8
[33] = test system: CAKI-1
[34] = test system: SNB-75
[35] = test system: M14
[36] = test system: COLO 205
[37] = test system: CCRF-CEM
[38] = test system: LOX IMVI
[39] = test system: SF-295
[40] = test system: HOP-92
[41] = test system: Hs-578T
[42] = test system: SN12C
[43] = test system: OVCAR-3
[44] = test system: HT-29
[45] = test system: MDA-MB-435
[46] = test system: 786-0
[47] = test system: SK-MEL-28
[48] = test system: TK-10
[49] = test system: T47D
[50] = test system: NCI-H226
[51] = test system: SK-MEL-2
[52] = test system: SW-620
[53] = test system: NCI/ADR-RES
[54] = test system: U-251
[55] = test system: HCT-116
[56] = test system: SF-268
[57] = test system: DU-145
[58] = test system: MOLT-4
[59] = test system: SF-539

With CN1CCN(c2nc3c(c(=O)n(C)c(=O)n3C)n2C)CC1 the GI50 [1] was > 100 µM (inactive), the GI50 [2] was > 100 µM (inactive) and the GI50 [3] was > 100 µM (inactive). For the same compound, the GI50 [4] was greater than 100 µM, the GI50 [5] was > 100 µM (inactive) and the GI50 [6] was > 100 µM (inactive). The GI50 [7] was > 100 µM (inactive), the GI50 [8] was > 100 µM (inactive) and the GI50 [9] was > 100 µM (inactive). For the same compound, the GI50 [10] was > 100 µM (inactive), the GI50 [11] was > 100 µM (inactive) and the GI50 [12] was > 100 µM (inactive). The GI50 [13] was > 100 µM (inactive), the GI50 [14] was > 100 µM (inactive) and the GI50 [15] was > 100 µM (inactive). For the same compound, the GI50 [16] was > 100 µM (inactive), the GI50 [17] was > 100 µM (inactive) and the GI50 [18] was > 100 µM (inactive). For the same compound, the GI50 [19] was > 100 µM (inactive), the GI50 [20] was > 100 µM (inactive) and the GI50 [21] was > 100 µM (inactive). For the same compound, the GI50 [22] was > 100 µM (inactive), the GI50 [23] was > 100 µM (inactive) and the GI50 [24] was > 100 µM (inactive). The GI50 [25] was > 100 µM (inactive), the GI50 [26] was > 100 µM (inactive) and the GI50 [27] was > 100 µM (inactive). For the same compound, the GI50 [28] was > 100 µM (inactive), the GI50 [29] was > 100 µM (inactive) and the GI50 [30] was > 100 µM (inactive). For the same compound, the GI50 [31] was > 100 µM (inactive), the GI50 [32] was > 100 µM (inactive) and the GI50 [33] was > 100 µM (inactive). The GI50 [34] was > 100 µM (inactive), the GI50 [35] was > 100 µM (inactive) and the GI50 [36] was > 100 µM (inactive). The GI50 [37] was > 100 µM (inactive), the GI50 [38] was > 100 µM (inactive) and the GI50 [39] was > 100 µM (inactive). For the same compound, the GI50 [40] was > 100 µM (inactive), the GI50 [41] was > 100 µM (inactive) and the GI50 [42] was > 100 µM (inactive). For the same compound, the GI50 [43] was > 100 µM (inactive), the GI50 [44] was > 100 µM (inactive) and the GI50 [45] was > 100 µM (inactive). The GI50 [46] was > 100 µM (inactive), the GI50 [47] was > 100 µM (inactive) and the GI50 [48] was > 100 µM (inactive). For the same compound, the GI50 [49] was > 100 µM (inactive), the GI50 [50] was > 100 µM (inactive) and the GI50 [51] was > 100 µM (inactive). For the same compound, the GI50 [52] was > 100 µM (inactive), the GI50 [53] was > 100 µM (inactive) and the GI50 [54] was > 100 µM (inactive). The GI50 [55] was > 100 µM (inactive), the GI50 [56] was > 100 µM (inactive) and the GI50 [57] was > 100 µM (inactive).

In the case of CN(C)/C=N/CC(O)c1ccccc1 (centres undefined), the GI50 [1] is reported as > 100 µM (inactive), the GI50 [2] is reported as > 100 µM (inactive) and the GI50 [3] is reported as > 100 µM (inactive). The GI50 [4] was greater than 100 µM, the GI50 [5] was > 100 µM (inactive) and the GI50 [58] was > 100 µM (inactive). For the same compound, the GI50 [6] was > 100 µM (inactive), the GI50 [7] was > 100 µM (inactive) and the GI50 [8] was > 100 µM (inactive). The GI50 [9] was > 100 µM (inactive), the GI50 [10] was > 100 µM (inactive) and the GI50 [11] was > 100 µM (inactive). The GI50 [12] was > 100 µM (inactive), the GI50 [13] was > 100 µM (inactive) and the GI50 [14] was > 100 µM (inactive). The GI50 [15] was > 100 µM (inactive), the GI50 [17] was > 100 µM (inactive) and the GI50 [18] was > 100 µM (inactive). For the same compound, the GI50 [19] was > 100 µM (inactive), the GI50 [20] was > 100 µM (inactive) and the GI50 [21] was > 100 µM (inactive). The GI50 [22] was > 100 µM (inactive), the GI50 [23] was > 100 µM (inactive) and the GI50 [24] was > 100 µM (inactive). For the same compound, the GI50 [25] was > 100 µM (inactive), the GI50 [26] was > 100 µM (inactive) and the GI50 [27] was > 100 µM (inactive). The GI50 [28] was > 100 µM (inactive), the GI50 [29] was > 100 µM (inactive) and the GI50 [30] was > 100 µM (inactive). The GI50 [33] was > 100 µM (inactive), the GI50 [34] was > 100 µM (inactive) and the GI50 [35] was > 100 µM (inactive). The GI50 [36] was > 100 µM (inactive), the GI50 [37] was > 100 µM (inactive) and the GI50 [38] was > 100 µM (inactive). For the same compound, the GI50 [40] was > 100 µM (inactive), the GI50 [41] was 28.5 µM (inactive) and the GI50 [59] was > 100 µM (inactive). The GI50 [42] was > 100 µM (inactive), the GI50 [43] was > 100 µM (inactive) and the GI50 [44] was > 100 µM (inactive). For the same compound, the GI50 [45] was > 100 µM (inactive), the GI50 [46] was > 100 µM (inactive) and the GI50 [47] was > 100 µM (inactive). The GI50 [48] was > 100 µM (inactive), the GI50 [49] was > 100 µM (inactive) and the GI50 [50] was > 100 µM (inactive). The GI50 [51] was > 100 µM (inactive), the GI50 [52] was > 100 µM (inactive) and the GI50 [53] was > 100 µM (inactive). For the same compound, the GI50 [54] was > 10 µM (inactive), the GI50 [55] was > 100 µM (inactive) and the GI50 [56] was > 100 µM (inactive). The GI50 [57] was > 100 µM (inactive).

With ON(CCc1ccccn1)Cc1ccccc1 the GI50 [1] was > 100 µM (inactive), the GI50 [2] was > 100 µM (inactive) and the GI50 [3] was > 100 µM (inactive). For the same compound, the GI50 [4] was greater than 100 µM, the GI50 [5] was > 100 µM (inactive) and the GI50 [58] was > 100 µM (inactive). For the same compound, the GI50 [6] was > 100 µM (inactive), the GI50 [7] was 31.7 µM (inactive) and the GI50 [8] was > 100 µM (inactive). For the same compound, the GI50 [9] was > 100 µM (inactive), the GI50 [10] was > 100 µM (inactive) and the GI50 [11] was > 100 µM (inactive). The GI50 [12] was > 100 µM (inactive), the GI50 [13] was > 100 µM (inactive) and the GI50 [14] was > 100 µM (inactive). For the same compound, the GI50 [15] was > 100 µM (inactive), the GI50 [16] was > 100 µM (inactive) and the GI50 [17] was > 100 µM (inactive). The GI50 [18] was > 100 µM (inactive), the GI50 [20] was > 100 µM (inactive) and the GI50 [21] was > 100 µM (inactive). For the same compound, the GI50 [22] was > 100 µM (inactive), the GI50 [23] was > 100 µM (inactive) and the GI50 [24] was > 100 µM (inactive). The GI50 [25] was > 100 µM (inactive), the GI50 [26] was > 100 µM (inactive) and the GI50 [27] was > 100 µM (inactive). The GI50 [28] was > 100 µM (inactive), the GI50 [29] was > 100 µM (inactive) and the GI50 [30] was > 100 µM (inactive). The GI50 [31] was > 100 µM (inactive), the GI50 [32] was > 100 µM (inactive) and the GI50 [33] was > 100 µM (inactive). For the same compound, the GI50 [34] was > 100 µM (inactive), the GI50 [35] was > 100 µM (inactive) and the GI50 [36] was > 100 µM (inactive). For the same compound, the GI50 [38] was > 100 µM (inactive), the GI50 [39] was > 100 µM (inactive) and the GI50 [40] was > 100 µM (inactive). The GI50 [41] was > 100 µM (inactive), the GI50 [59] was > 100 µM (inactive) and the GI50 [42] was > 100 µM (inactive). The GI50 [43] was > 100 µM (inactive), the GI50 [44] was > 100 µM (inactive) and the GI50 [45] was > 100 µM (inactive). For the same compound, the GI50 [46] was > 100 µM (inactive), the GI50 [47] was > 100 µM (inactive) and the GI50 [48] was > 100 µM (inactive). For the same compound, the GI50 [49] was > 100 µM (inactive), the GI50 [50] was > 100 µM (inactive) and the GI50 [51] was > 100 µM (inactive). The GI50 [52] was > 100 µM (inactive), the GI50 [53] was > 100 µM (inactive) and the GI50 [54] was > 100 µM (inactive). For the same compound, the GI50 [55] was > 100 µM (inactive), the GI50 [56] was > 100 µM (inactive) and the GI50 [57] was > 100 µM (inactive).
